“Also recorded” adds a separate entry of the source.
Columns and labels:
[1] = tested on: RBC from SCD subjects; experiment: Anti-sickling of RBC from SCD subjects under hypoxia (blood smears); format: cell-based, human; details: for anti-sickling (average): 10 ug/ml blood
Procedure: (§1) Red Blood Cell (RBC) sickling were studied in blood samples obtained from 12 sickle cell subjects and 6 samples from healthy volunteers matched in terms of age and gender. The blood samples from the subjects were withdrawn and mixed into EDTA tube (10 ml), and then divided into 2 tubes 4-5 ml each (One containing S-NACH 10-100 ug/ml blood added at 10 ul/1 ml blood or PBS buffer solution).
(§2) Blood samples were incubated for 2-3 hours at room temperature and then blood smears were obtained for monitoring shape of RBCs (take photos for later quantitation number of normal vs. sickle RBCs). Then blood samples were centrifuged to get the plasma, and the plasma were frozen for further testing of various biomarkers.

[2] = tested on: RBC from healthy subjects; experiment: Effect on morphology of RBC from healthy subjects; format: cell-based, human
Procedure: as §1, §2

[3] = Plasma tinzaparin level after oral administration to mice (colorimetric assay); format: in vivo; details: oral gavage, 1.6 mg/kg
Procedure: Nanoformulated LMWH as shown in Examples 1-5 were administered orally to mice versus standard LMWH at the same dose. Blood samples were withdrawn at different time and plasma levels of LMWH were measured using colorimetric assay.
FIG. 11 is a graph of plasma tinzaparin level versus time profiles in mice with formulations administered by oral gavage into the mice at dose of 1.6 mg/kg, in accordance with embodiments of the present invention. Graphs for Tinzaparin, and Chitosan NPs with positive charge and with negative charge are shown. Data are shown as mean±SD (n=4).

OC[C@H]1O[C@@](CO)(O[C@H]2O[C@H](CO)[C@@H](O)[C@H](O)[C@H]2O)[C@@H](O)[C@@H]1O [sucrose, reference compound]
effect on the average % of sickle RBC ([1]; Patient #7, over 2-4 hours hypoxia at 25 degree centigrade): no significant effect | effect on the sickling ([1]; Patient #7 acute crisis, hypoxia 2-4 hours at 25 degree centigrade): no significant effect

Sulfated Non-Anticoagulant Heparin [SNACH]
anti-sickling (average) ([1]; hypoxia 2-4 hours at 25 degree centigrade, SCD subject #5): > 90% | anti-sickling (average) ([1]; hypoxia 2-4 hours at 25 degree centigrade, SCD subjects): > 90% | formation of irreversibly sickled cells ([1]; 2-24 hours incubation under 95% N2/5% CO2, high concentration): significantly decreased | effect on normal morphology of RBC [2]: no effect; also recorded: without any effect

Tinzaparin [standard tinzaparin]
blood levels after oral administration [3]: no detectable blood levels
